From patent publication US20110165652A1, “COMPOSITIONS, METHODS AND SYSTEMS FOR SINGLE MOLECULE SEQUENCING” (LIFE TECHNOLOGIES CORPORATION, priority 2008, published 2011)

What was measured:
Assay type in all cases: biochemical
[1] = system: 5′ fluorescein-labeled primer:template duplex; experiment: Ensemble primer extension with gamma-labeled dNTP by Phi29 mutant protein; conditions: for Ensemble Extension Activity: γ-nucleotide incorporation / Ensemble Extension Activity: activity with base-labeled nucleotides: relative to parent Phi29 exo(−) D12A/D66A; for Ensemble Extension Activity: γ-nucleotide incorporation: 0.5 μM or 5 μM gamma-labeled dNTP, 10 seconds to 5 minutes; for Ensemble Extension Activity (polymerase active): cysteine to serine variants
Text: Table 1, below, summarizes the ability of each mutant Phi29 polymerase to incorporate gamma-labeled nucleotides (as indicated in the column entitled “Ensemble Extension Activity”), fidelity of replication (as indicated in the column entitled “Fidelity”) and for activity in a single-molecule detected system, as depicted in FIGS. 20-59′ and 69-76 and associated description (see below), and indicated in the last column, entitled “Activity on Detection System.” Each and every mutation introduced into a given Phi29 mutant protein is listed in the column entitled “Mutations”; mutations are designated by the original amino acid/its position/its replacement, e.g., V250A means that valine at position 250 was replaced by alanine by site specific mutagenesis. If two or more amino acid substitutions are made, then each is designated as above and separated by a “/”. The predicted effect of a given mutation on polymerase activity, based on structure-function analysis of Phi29 polymerase, is provided in the column entitled “Expected Effect.” The various Phi29 mutants generated via selective mutagenesis, along with any applicable results of extension studies, fidelity assays and single molecule detection studies using each mutant protein, are collectively summarized in Table 1, below. To perform the extension studies, 330 nM Phi29 mutant protein and 100 nM 5′ fluorescein-labeled primer:template duplex were co-incubated in a solution comprising 50 mM Tris (pH 7.0), 2 mM MnCl2, 2 mM DTT, 0.1% Triton-X-100, 0.01% Tween-20. The reactions were initiated by addition of 0.5 μM or 5 μM of gamma-labeled dNTP, and quenched via addition of 30 mM EDTA at timepoints ranging from 10 seconds to 5 minutes. The reaction products were then separated on a 20% denaturing acrylamide gel and imaged on a Bio-Rad Molecular Imager FX. The intensity of each reaction product was quantified using Bio-Rad Quantity One software. FIGS. 20-59′ depict the results of extension studies conducted using specific Phi29 mutants.

[2] = system: template specifying incorporation of a single γ-labeled nucleotide; experiment: Real time on-surface single molecule detection of γ-labeled nucleotide incorporation; conditions: for Activity on Detection System: more signals: number of signals relative to parent enzyme
Experimental: Real time “On surface” experiments were performed to characterize the activity of the Phi29 variants on an exemplary single molecule sequencing system (FIGS. 72A and B). Chambered slides were prepared to facilitate injection and multiple experiments data collection from several chambers using a single slide. The template specified incorporation of a single γ-labeled nucleotide. The samples were excited using a 488 nm Argon ion laser at 2.5 mW and the data were collected at 25 ms integration time. Each stream of data was collected for 1500 frames, consecutive streams were collected for ˜5 minutes by moving to new fields of views (FOVs). FRETAN software was used to obtain the donor and acceptor traces.
After trace analysis, the selected signals (with acceptor signal over background greater than 4, i.e., ASN≧4) were characterized by examining attributes including duration, ASN and timing of signal appearance (i.e., start of signals). The variants that are of special interest include Variants 2 and 3.

[3] = system: 5′ fluorescein-labeled primer:template duplex; experiment: Replication fidelity: primer extension with incorrect (non-complementary) gamma-labeled nucleotide; conditions: incorrect gamma-labeled nucleotide in lieu of the complementary one
Experimental: To assay the replication fidelity of each mutant Phi29 polymerase protein, primer extensions were carried out in the same manner, except that an incorrect (i.e., non-complementary) gamma-labeled nucleotide was added to the extension mixture in lieu of the complementary nucleotide, and the amount of extended product following extension in presence of the incorrect nucleotide was analyzed.

| Substance | Ensemble Extension Activity: γ-nucleotide incorporation [1] | further results |
| --- | --- | --- |
| S388G: Phi29 exo(−) (D12A/D66A) polymerase mutant [Variant S388G] | Decreased γ-nucleotide | – |
| C448S: Phi29 exo(−) (D12A/D66A) polymerase mutant [Variant C448S] | – | Ensemble Extension Activity (polymerase active) [1]: Active |
| E375Y/V250R: Phi29 exo(−) (D12A/D66A) polymerase mutant | no activity | – |
| C530S: Phi29 exo(−) (D12A/D66A) polymerase mutant [Variant C530S] | – | Ensemble Extension Activity (polymerase active) [1]: Active |
| D456S: Phi29 exo(−) (D12A/D66A) polymerase mutant [Variant D456S] | Impaired | Activity on Detection System: more signals [2]: Fewer signals. |
| L384R: Phi29 exo(−) (D12A/D66A) polymerase mutant [Variant L384R] | Slightly decreased γ- | – |
| V250A/E375A/Q380A/D456E: Phi29 exo(−) (D12A/D66A) polymerase mutant | Impaired | – |
| Y254V: Phi29 exo(−) (D12A/D66A) polymerase mutant [Variant Y254V] | Decreased γ-nucleotide | Ensemble Extension Activity: activity with base-labeled nucleotides [1]: incorporation, but increased |
| N387Y: Phi29 exo(−) (D12A/D66A) polymerase mutant [Variant N387Y] | Significantly decreased γ- | – |
| C22S: Phi29 exo(−) (D12A/D66A) polymerase mutant [Variant C22S] | – | Ensemble Extension Activity (polymerase active) [1]: Active |
| K512A: Phi29 exo(−) (D12A/D66A) polymerase mutant [Variant K512A] | Slightly decreased γ- | – |
| V250I/E375Y: Phi29 exo(−) (D12A/D66A) polymerase mutant | Decreased rate | – |
| D458N: Phi29 exo(−) (D12A/D66A) polymerase mutant [Variant D458N] | No activity | Fidelity (mis-incorporation) [3]: No activity |
| E486A: Phi29 exo(−) (D12A/D66A) polymerase mutant [Variant E486A] | Slightly decreased γ- | – |
| K383A: Phi29 exo(−) (D12A/D66A) polymerase mutant [Variant K383A] | Slightly lower than | – |
| C22S/C448S/C530S: Phi29 exo(−) (D12A/D66A) polymerase mutant | – | Ensemble Extension Activity (polymerase active) [1]: Slightly less |
| E375Y/V250H: Phi29 exo(−) (D12A/D66A) polymerase mutant | decreased rate | – |
| C22S/C290S/C448S: Phi29 exo(−) (D12A/D66A) polymerase mutant | – | Ensemble Extension Activity (polymerase active) [1]: Slightly less |
| E375Y/V250Q: Phi29 exo(−) (D12A/D66A) polymerase mutant | decreased | – |
| N387A: Phi29 exo(−) (D12A/D66A) polymerase mutant [Variant N387A] | Significantly decreased γ- | Activity on Detection System: more signals [2]: Fewer signals. |
| V250I/E375C: Phi29 exo(−) (D12A/D66A) polymerase mutant | Decreased rate | – |
| K383P: Phi29 exo(−) (D12A/D66A) polymerase mutant [Variant K383P] | decreased γ-nucleotide | – |
| Y254F: Phi29 exo(−) (D12A/D66A) polymerase mutant [Variant Y254F] | Decreased γ-nucleotide | Ensemble Extension Activity: activity with base-labeled nucleotides [1]: incorporation, but increased |

| Substance | Ensemble Extension Activity: γ-nucleotide incorporation [1] | further results |
| --- | --- | --- |
| E375Y/V250L: Phi29 exo(−) (D12A/D66A) polymerase mutant | decreased | – |
| E375C: Phi29 exo(−) (D12A/D66A) polymerase mutant [Variant E375C] | More efficient | Activity on Detection System: more signals [2]: Slightly higher; Activity on Detection System: Signals detected (timing of appearance) ([2]; relative to parent enzyme): earlier.; Activity on Detection System: high ASB signals ([2]; relative to parent enzyme): More high ASB signals. |
| V250I: Phi29 exo(−) (D12A/D66A) polymerase mutant [Variant V250I] | Decreased rate | Activity on Detection System: long duration signals ([2]; relative to parent enzyme): More long duration |
| K371T: Phi29 exo(−) (D12A/D66A) polymerase mutant [Variant K371T] | Slightly lower than | – |
| E375Y/V250K: Phi29 exo(−) (D12A/D66A) polymerase mutant | no activity | – |
| E375Y/V250G: Phi29 exo(−) (D12A/D66A) polymerase mutant | no activity | – |
| E486D: Phi29 exo(−) (D12A/D66A) polymerase mutant [Variant E486D] | Decreased γ-nucleotide | – |
| C22S/C290S/C530S: Phi29 exo(−) (D12A/D66A) polymerase mutant | – | Ensemble Extension Activity (polymerase active) [1]: Slightly less |
| K371A: Phi29 exo(−) (D12A/D66A) polymerase mutant [Variant K371A] | Slightly lower than | – |
| E375W: Phi29 exo(−) (D12A/D66A) polymerase mutant [Variant E375W] | Increased γ-nucleotide | – |
| E375A/Q380A: Phi29 exo(−) (D12A/D66A) polymerase mutant | More efficient | Activity on Detection System: more signals [2]: 3.5x more signals. |
| C290S: Phi29 exo(−) (D12A/D66A) polymerase mutant [Variant C290S] | – | Ensemble Extension Activity (polymerase active) [1]: Active |
| K478A: Phi29 exo(−) (D12A/D66A) polymerase mutant [Variant K478A] | Decreased γ-nucleotide | – |
| E375Y/V250D: Phi29 exo(−) (D12A/D66A) polymerase mutant | no activity | – |
| K383R: Phi29 exo(−) (D12A/D66A) polymerase mutant [Variant K383R] | Slightly lower than | – |
| E375Y/V250P: Phi29 exo(−) (D12A/D66A) polymerase mutant | no activity | – |
| C290S/C448S/C530S: Phi29 exo(−) (D12A/D66A) polymerase mutant | – | Ensemble Extension Activity (polymerase active) [1]: Slightly less |
| E375Y/V250W: Phi29 exo(−) (D12A/D66A) polymerase mutant | no activity | – |
| E375Y/V250S: Phi29 exo(−) (D12A/D66A) polymerase mutant | decreased | – |
| E375Y: Phi29 exo(−) (D12A/D66A) polymerase mutant [Variant E375Y] | More efficient | extension (FIG. 70C, 70D) ([1]; ensemble PAGE analyses, γ-nucleotides): most significant increase in extension; Activity on Detection System: more signals [2]: 3x more signals.; Activity on Detection System: long duration signals ([2]; relative to parent enzyme): More long duration |
| V250I/E375A/Q380A: Phi29 exo(−) (D12A/D66A) polymerase mutant | Decreased rate | – |
| E375Y/V250T: Phi29 exo(−) (D12A/D66A) polymerase mutant | decreased | – |
| E375Y/V250C: Phi29 exo(−) (D12A/D66A) polymerase mutant | decreased | – |
